From PubChem BioAssay (NCI)
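Interpolation was linear, between the two tested concentrations surrounding the appropriate level; five concentrations were tested over 48 hours in 96-well plates. GI50 = concentration required for 50% inhibition of growth. At the TGI there is no net growth.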

Legend:
Assay in all cases: DTP human tumour cell line panel, 48 h
RXF 393 renal = system: RXF 393 renal
NCI-H522 lung = system: NCI-H522 lung
ACHN renal = system: ACHN renal
SF-268 CNS = system: SF-268 CNS
HOP-62 NSCLC = system: HOP-62 NSCLC
PC-3 prostate = system: PC-3 prostate
IGROV1 ovarian = system: IGROV1 ovarian
HOP-92 NSCLC = system: HOP-92 NSCLC
NCI/ADR-RES ovarian = system: NCI/ADR-RES ovarian
UACC-62 melanoma = system: UACC-62 melanoma

Structure (SMILES)	GI50 (RXF 393 renal) [µM]	TGI (RXF 393 renal) [µM]	GI50 (NCI-H522 lung) [µM]	TGI (NCI-H522 lung) [µM]	GI50 (ACHN renal) [µM]	TGI (ACHN renal) [µM]	GI50 (SF-268 CNS) [µM]	TGI (SF-268 CNS) [µM]	GI50 (HOP-62 NSCLC) [µM]	TGI (HOP-62 NSCLC) [µM]	GI50 (PC-3 prostate) [µM]	TGI (PC-3 prostate) [µM]	GI50 (IGROV1 ovarian) [µM]	TGI (IGROV1 ovarian) [µM]	GI50 (HOP-92 NSCLC) [µM]	TGI (HOP-92 NSCLC) [µM]	GI50 (NCI/ADR-RES ovarian) [µM]	TGI (NCI/ADR-RES ovarian) [µM]	GI50 (UACC-62 melanoma) [µM]	TGI (UACC-62 melanoma) [µM]
C=C1C(=O)O[C@H]2[C@H]1CC/C(CNC(=O)c1c[nH]c3ccc(F)cc13)=C\CC[C@@]1(C)O[C@@H]21	0.522	1.75	0.282	1.31	1.04	2.38	1.78	4.45	4.12	19.7	2.91	12.1	1.63	5.47	1.54	4.17	4.13	19.3	1.27	3.03
C=C1CCC2C(/C=C(\C)CCC1O)OC(=O)C2C (configuration not stated)	23.2	> 100	> 100	> 100	> 100	> 100	> 100	> 100	> 100	> 100	> 100	> 100	> 100	> 100	> 100	> 100	> 100	> 100	> 100	> 100
Cc1ccc2c(C(C[N+](=O)[O-])c3cccs3)c(-c3ccccc3)[nH]c2c1 (configuration not stated)	1.16	4.36	1.23	8.03	2.15	13.3	2.77	11.5	2.25	11.7	2.46	16.1	1.12	5.81	4.03	9.24	0.984	3.68	1.4	5.58
N#Cc1c(-c2cccs2)c2c(=S)[nH]c(=S)[nH]c2[nH]c1=S	37.1	> 100	29.1	79	23.8	67.6	32.4	67.2	> 100	> 100	30.8	> 100	71.3	> 100	89.4	> 100	62	99.3	36.3	> 100
CN1CCN(CC#Cc2cccc(C(=O)c3cnn(-c4ccc(F)cc4)c3N)c2)CC1	> 25	> 25	> 25	> 25	> 25	> 25	> 25	> 25	> 25	> 25	> 25	> 25	> 25	> 25	15.2	> 25	> 25	> 25	> 25	> 25
C[C@@H]1CC[C@@H]2[C@@H]1[C@H](OC(=O)/C=C/c1ccccc1)[C@]1(c3ccccc3)C[C@@H](OC(=O)CO)[C@@]2(C)O1	0.252	13.7	13.2	30	0.179	0.597	10.4	37.7	16.2	31.1	3.67	18.9	17	44.5	6.52	20.1	4.41	24.9	14.5	33.3
CC1(C)N=C(N)N=C(N)N1c1ccc(CCCCc2ccc(S(=O)(=O)F)cc2)cc1	0.79	> 100	2.43	16.2	4.68	> 100	0.704	16.9	3.86	20.1	0.094	23.5	0.445	23.5	4.48	27.8	> 90.2	> 100	0.368	16.8
COc1ccc(C(=O)Nc2ncc(Cc3ccc(Cl)cc3)s2)cc1	0.048	0.927	0.0573	> 37.8	0.0603	> 100	0.3	> 100	0.0984	> 83.4	0.0528	> 100	0.0825	> 100	3.71	> 100	0.0457		0.0475	> 100
COC(=O)C(=O)CC(=O)CCn1ncc(Cl)c(Cl)c1=O		33.9		7.35		34.9		21.4		42.1	14.5	37.2		33.4		28.2	18.6	44.1		25.8
CN1CCN(Cc2ccc(C(=O)Nc3cncc(C#Cc4cnc(N)c5ccccc45)c3)cc2C(F)(F)F)CC1	1.55	3.01	1.95	4.26	1.52	2.97	4.42	17.2	2.19	4.42	2.74	10.1	1.87	4.43	2.42	11.3	1.93	4.22	5.22	17.5
COc1ccc(-c2cc(-c3cc(Cl)ccc3Cl)nc3[nH]c(-c4cc(F)c(Cl)cc4Cl)cc(=O)c23)cc1	17.4	> 100	20.4	> 100	19.9	69	> 100	> 100	5.52	32.2	39.3	> 100	16.5	> 100	35.3	> 100	4.95	23.2	14.3	93.4
C#Cc1cnc(=O)n(C2CC(O)C(CO)O2)c1 (configuration not stated)	> 100	> 100	> 100	> 100	> 100	> 100	> 100	> 100	> 100	> 100	3.36	11.3	> 100	> 100		> 43.2	> 100	> 100	> 100	> 100
CC(CO)(CO)N=Cc1cc(I)cc(I)c1O		26.5		49.4		69.9		36.5		25		32.1		33.3		32.9		63.2		30.7
N#Cc1c(NC(=O)c2cccc(C(F)(F)F)c2)sc2c1CCC(=O)C2	0.391	1.45	0.315	1.65	0.327	0.985	0.91	5.9	1.76	> 26.4	0.292	1.41	0.582	2.09	1.02	3.06	1.62	7.77	0.495	2.14
COc1ccc(NC(=O)Nc2n[nH]c3ccccc23)cc1	> 100	> 100	> 100	> 100	> 100	> 100	> 100	> 100	> 100	> 100	> 100	> 100	> 100	> 100	> 100	> 100	> 100	> 100	> 100	> 100
N/C(CC(=O)Nc1cc(C(F)(F)F)ccc1Cl)=N\O		> 100		> 100		> 100		> 100		> 100		> 100		> 100		> 100		> 100		> 100
NC(CO)Cc1cnc[nH]1 (configuration not stated)		> 10		> 100	> 100	> 100	> 100	> 100	> 100	> 100	> 100	> 100	> 100	> 100		> 10	> 100	> 100	> 100	> 100
NC(N)=N/N=C(/c1ccccc1)c1ccc(F)cc1	0.291	3.54	0.267	1.45	0.75	16.4	0.543	14.4	0.85	13.1	0.382	18.8	0.528	13.5	0.984	31.4	0.766	4.19	0.421	15.5
CCN1CCN(c2nc(NCCCNc3ccnc4cc(Cl)ccc34)c3ccccc3n2)CC1	1.51	3.29	2.92	6.14	2.04	4.54	2.59	10.7	1.79	4.91	3.09	14.5	2.36	10.9	1.78	4.64	15.2	32.3	1.87	3.58
O=C1/C(=C/c2ccc(F)cc2)CCOc2ccc([N+](=O)[O-])cc21	1.71	3.7	1.91	4.14	28	65.4	22.3	53.2	2.89	8.33	0.306	1.64	3.15	10.8	4.45	40.2	2.12	4.99	2.19	4.01
